Read-outs that look alike come from different tables or passages of the source.
Key:
[1] = system: Toxoplasma gondii; test: Toxoplasma gondii in vitro growth inhibition; type: cell-based; conditions: read-out: Toxoplasma gondii EC50; 50% reduction in growth
[2] = system: Cryptosporidium parvum; test: Cryptosporidium parvum in vitro growth inhibition; type: cell-based; conditions: read-out: Cryptosporidium parvum EC50; 50% reduction in growth
[3] = system: Cryptosporidium parvum; test: C. parvum; type: in vivo, mouse; conditions: >2 log unit reduction in infection
[4] = system: Cryptosporidium parvum; conditions: ref Arnold et al., cited from earlier work
[5] = cited from earlier work
[6] = target: T1, hERG (Homo sapiens, UniProt Q12809); test: hERG thallium flux assay
T1 sequence (Q12809 whole entry): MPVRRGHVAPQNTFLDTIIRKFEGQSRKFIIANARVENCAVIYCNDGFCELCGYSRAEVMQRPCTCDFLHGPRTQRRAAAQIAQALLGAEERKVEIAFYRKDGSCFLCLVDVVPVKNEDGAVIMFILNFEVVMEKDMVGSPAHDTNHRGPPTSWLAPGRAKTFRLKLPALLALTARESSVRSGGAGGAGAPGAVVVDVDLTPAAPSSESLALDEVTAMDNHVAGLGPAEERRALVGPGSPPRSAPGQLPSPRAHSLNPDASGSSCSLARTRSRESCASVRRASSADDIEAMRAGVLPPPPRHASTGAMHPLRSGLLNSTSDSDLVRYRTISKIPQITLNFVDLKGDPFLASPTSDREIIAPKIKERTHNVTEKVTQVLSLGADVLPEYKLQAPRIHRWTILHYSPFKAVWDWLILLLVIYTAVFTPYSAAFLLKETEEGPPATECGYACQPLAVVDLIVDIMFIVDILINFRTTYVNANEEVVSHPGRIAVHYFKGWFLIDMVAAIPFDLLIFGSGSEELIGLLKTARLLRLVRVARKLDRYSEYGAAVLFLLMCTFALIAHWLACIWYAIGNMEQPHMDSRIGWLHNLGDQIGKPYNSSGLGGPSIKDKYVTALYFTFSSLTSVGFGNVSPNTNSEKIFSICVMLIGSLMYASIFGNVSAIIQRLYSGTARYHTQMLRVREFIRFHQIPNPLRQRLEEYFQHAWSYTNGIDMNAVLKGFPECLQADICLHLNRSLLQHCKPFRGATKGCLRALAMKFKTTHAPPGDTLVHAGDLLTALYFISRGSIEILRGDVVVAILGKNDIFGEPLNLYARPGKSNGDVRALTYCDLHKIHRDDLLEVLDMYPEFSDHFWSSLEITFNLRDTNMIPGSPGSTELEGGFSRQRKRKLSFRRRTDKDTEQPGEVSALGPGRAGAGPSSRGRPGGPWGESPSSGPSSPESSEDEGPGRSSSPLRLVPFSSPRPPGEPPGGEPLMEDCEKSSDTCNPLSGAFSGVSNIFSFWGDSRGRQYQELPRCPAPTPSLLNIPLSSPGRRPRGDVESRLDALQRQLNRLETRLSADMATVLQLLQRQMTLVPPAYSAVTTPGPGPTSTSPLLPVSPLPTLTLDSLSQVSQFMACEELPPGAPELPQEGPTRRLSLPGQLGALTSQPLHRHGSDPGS

[7] = system: P-glycoprotein (P-gp); conditions: compared with efficacious compounds such as BKI-1369; ref Arnold et al., 2019; cited from earlier work
[8] = target: T2, TgCDPK1 (Toxoplasma gondii, UniProt Q9BJF5); type: biochemical; conditions: read-out: TgCDPK1 IC50
T2 sequence (Q9BJF5 1-507): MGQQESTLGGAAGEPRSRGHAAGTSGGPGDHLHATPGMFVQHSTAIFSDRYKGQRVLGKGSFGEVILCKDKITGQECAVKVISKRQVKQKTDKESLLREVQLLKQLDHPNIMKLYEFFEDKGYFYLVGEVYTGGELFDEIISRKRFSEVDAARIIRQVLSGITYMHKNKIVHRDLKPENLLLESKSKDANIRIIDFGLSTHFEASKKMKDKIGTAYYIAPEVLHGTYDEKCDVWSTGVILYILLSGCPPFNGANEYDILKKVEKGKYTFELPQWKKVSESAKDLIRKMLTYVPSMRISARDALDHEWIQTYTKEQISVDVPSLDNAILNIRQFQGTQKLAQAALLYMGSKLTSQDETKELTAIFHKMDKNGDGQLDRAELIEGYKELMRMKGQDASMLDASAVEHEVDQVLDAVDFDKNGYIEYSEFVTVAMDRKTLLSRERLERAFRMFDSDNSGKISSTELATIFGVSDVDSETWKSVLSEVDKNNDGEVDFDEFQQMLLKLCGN

[9] = target: T3, CpCDPK1 (Cryptosporidium parvum, UniProt A3FQ16); type: biochemical; conditions: read-out: CpCDPK1 IC50
T3 sequence (A3FQ16 1-538): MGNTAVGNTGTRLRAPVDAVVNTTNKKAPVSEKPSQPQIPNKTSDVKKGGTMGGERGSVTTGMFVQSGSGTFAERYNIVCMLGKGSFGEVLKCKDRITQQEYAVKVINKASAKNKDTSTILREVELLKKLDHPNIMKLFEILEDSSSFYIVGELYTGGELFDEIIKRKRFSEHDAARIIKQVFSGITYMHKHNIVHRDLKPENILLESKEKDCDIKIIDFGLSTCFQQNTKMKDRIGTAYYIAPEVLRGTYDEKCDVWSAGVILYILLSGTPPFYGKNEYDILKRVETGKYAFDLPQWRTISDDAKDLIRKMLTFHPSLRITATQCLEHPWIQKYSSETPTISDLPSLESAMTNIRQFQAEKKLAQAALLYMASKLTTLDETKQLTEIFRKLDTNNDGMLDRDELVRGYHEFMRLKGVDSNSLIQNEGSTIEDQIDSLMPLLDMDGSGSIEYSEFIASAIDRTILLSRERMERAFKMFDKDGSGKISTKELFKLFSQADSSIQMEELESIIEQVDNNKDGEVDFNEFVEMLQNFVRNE

[10] = target: T1, hERG; test: hERG automated patch clamp; type: cell-based; conditions: read-out: hERG Qpatch IC50
[11] = type: in vivo
[12] = Toxicity and safety in calves; type: in vivo, calf; conditions: 3X maximal therapeutic doses; unpublished data
[13] = Plasma exposure after oral dosing in mice; type: in vivo, mouse; conditions: at the toxic dose of the same table row
[14] = QD in mice
[15] = cited from earlier work; remark: listed apart in the source
[16] = system: Toxoplasma gondii; test: T. gondii mouse efficacy model; type: in vivo; conditions: QD
[17] = target: T4, Human PKD3 (Homo sapiens, UniProt O94806); test: Human PKD3 kinase inhibition; type: biochemical; conditions: read-out: Human PKD3 IC50
T4 sequence (O94806 1-890): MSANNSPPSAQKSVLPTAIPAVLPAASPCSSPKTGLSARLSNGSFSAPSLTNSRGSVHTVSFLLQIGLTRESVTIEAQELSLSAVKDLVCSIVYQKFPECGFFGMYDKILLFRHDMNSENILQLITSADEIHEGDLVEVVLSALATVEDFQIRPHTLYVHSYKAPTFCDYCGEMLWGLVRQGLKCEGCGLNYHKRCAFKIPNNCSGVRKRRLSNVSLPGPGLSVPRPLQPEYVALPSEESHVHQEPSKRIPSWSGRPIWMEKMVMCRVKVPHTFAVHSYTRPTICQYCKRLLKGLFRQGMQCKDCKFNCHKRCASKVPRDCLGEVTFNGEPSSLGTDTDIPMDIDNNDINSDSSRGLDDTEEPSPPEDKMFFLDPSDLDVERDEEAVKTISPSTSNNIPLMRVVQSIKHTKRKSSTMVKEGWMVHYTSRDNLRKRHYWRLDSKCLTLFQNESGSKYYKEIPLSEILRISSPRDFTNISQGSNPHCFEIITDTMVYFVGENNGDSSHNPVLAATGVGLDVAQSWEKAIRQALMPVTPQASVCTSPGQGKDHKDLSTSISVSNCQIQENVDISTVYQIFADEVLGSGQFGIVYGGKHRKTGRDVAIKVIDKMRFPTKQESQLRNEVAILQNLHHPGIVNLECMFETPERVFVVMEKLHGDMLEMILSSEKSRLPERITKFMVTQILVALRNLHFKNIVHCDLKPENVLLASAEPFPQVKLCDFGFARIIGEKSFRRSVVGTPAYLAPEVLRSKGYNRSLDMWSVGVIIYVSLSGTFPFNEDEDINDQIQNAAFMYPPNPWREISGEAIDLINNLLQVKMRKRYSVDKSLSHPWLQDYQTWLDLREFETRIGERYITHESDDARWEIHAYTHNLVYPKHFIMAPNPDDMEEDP

[18] = type: in vivo; conditions: mouse pregnancy safety dose 50 mg/kg
[19] = mice, 30 mg/kg oral dose, ref Hulverson et al., 2017a, 30 mg/kg
[20] = mice, 30 mg/kg oral dose, ref Hulverson et al., 2017a, listed as 1369, 30 mg/kg

CCOc1ccc2cc(-c3nn(CC4CCN(C)CC4)c4ncnc(N)c34)ccc2c1 [BKI-1294]
EC50 [1]: 137 nM | EC50 [2]: 2220 nM | C. parvum efficacious dose in mice ([3]; QD): 100 mg/kg QD | Efficacy against Cryptosporidium infection in mice [4]; 2017: significantly reduced infection | Levels reached in tissues of the GI tract ([5]; infected mice, ref Arnold et al., 2017): reached high levels in all tissues of the GI tract | IC50 [6]: 790 nM | hERG Thallium Flux IC50 [6]: submicromolar

CCOc1ccc2cc(-c3nn(CC4CCNCC4)c4ncnc(N)c34)ccc2n1 [BKI-1318]
Efficacy against Cryptosporidium when the P-gp pumps were inhibited ([4]; P-gp pumps inhibited, 2019): greatly improved | Efficacy against Cryptosporidium [4]; 2019: failed to be efficacious | Efflux ratio [7]: much higher efflux ratio

CCOc1ccc2cc(-c3nn(CC4CCN(C)CC4)c4ncnc(N)c34)ccc2n1 [BKI-1369]
IC50 [8]: 6.1 nM | IC50 [9]: 0.9 nM | EC50 [2]: 2500 nM | C. parvum efficacious dose in mice ([3]; QD): 30 mg/kg QD | IC50 [10]: ~1000 nM | IC50 ([10]; listed as 1369): 970 nM | Dog CV safety: ↓dP/dt (plasma conc.) ([11]; anesthetized dog, decreased cardiac contractility): 9.3 µM | Dog CV safety: ↑SVR (plasma conc.) ([11]; anesthetized dog, increased systemic vascular resistance): 129 µM | Dog CV safety: complete CV collapse (plasma conc.) ([11]; dog, in vivo): > 50 µM | Dog CV safety: ↑QTcV (plasma conc.) ([11]; dog, in vivo): ~1.7 µM | Dog CV safety: ↓CO (plasma conc.) ([11]; dog, in vivo): 9.3 µM | Dog CV safety: ↓HR (plasma conc.) ([11]; dog, in vivo): 50 µM | Cardiovascular effects in calves [12]: have not been detected | Observed maximum plasma exposure at toxic dose [13]: 8.3 ± 0.2 µM | Dose at which toxicity was observed [14]: 300 (QD in mice) mg/kg | Observed maximum gastrointestinal tissue exposure after single dose, ascending colon [5, 19]: 23 µM | Observed maximum gastrointestinal tissue exposure after single dose, cecum [5, 19]: 20 µM | Observed maximum gastrointestinal tissue exposure after single dose, duodenum [5, 19]: > 76 µM | Observed maximum gastrointestinal tissue exposure after single dose, jejunum/ileum [5, 19]: 39 µM | Observed maximum gastrointestinal tissue exposure after single dose, cecum [5, 20]: 20 ± 6 µM | Observed maximum gastrointestinal tissue exposure after single dose, duodenum [5, 20]: 76 ± 41 µM | Toxicity on repeated dosing ([15]; 50 mg/kg for 5 days, ref Hulverson et al., 2017a): multiple signs of toxicity | Daily dose with no signs of GI side effects ([15]; mouse, in vivo): up to 150 mg/kg | Thallium flux IC50 relative to that of BKI-1294 ([6]; higher IC50 than BKI-1294): > 10 fold

CCOc1ccc2cc(-c3nn(C(C)(C)C)c(N)c3C(N)=O)cnc2c1 [BKI-1517]
EC50 [1]: 257 nM | EC50 [2]: 649 nM | C. parvum efficacious dose in mice ([3]; BID): 30 mg/kg BID | T. gondii efficacious dose in mice ([16]; >2 log unit reduction in infection): 60 mg/kg QD | T. gondii efficacious dose in mice ([16]; ≥2 log reduction in infection): 60 mg/kg QD | IC50 [10]: > 16700 nM | IC50 [17]: 1110 nM | Fertility (pregnant dams) [18]: 2 of 7 | Total pups born [18]: 0 | IC50 [6]: > 30000 nM

CCOc1ccc2cc(-c3nn(C4CCOCC4)c(N)c3C(N)=O)ccc2n1 [BKI-1841]
IC50 [8]: 30.1 nM | EC50 [1]: 130 nM | IC50 [9]: 2.8 nM | EC50 [2]: 1210 nM

From publication PMC8565993 (International journal for parasitology, 2020)
